One data set deals with Du145 Prostate. Nature of the data set: MTT cytotoxicity Du145. The class given is cell-based. The settings on record: read-out: GI50 Concentration That Inhibits Cell Growth by 50%, 72 h. The method, then: (§1) Cytotoxicity assay studies were performed at Calvary Mater Newcastle Hospital, Waratah, NSW, Australia. In vitro studies were performed according to described methods. Complexes were prepared in DMSO as stock treatment (30 mM) solutions and stored at −20 °C. All cell lines were cultured in a humidified atmosphere with 5% CO2 at 37 °C and maintained in Dulbecco’s modified eagle’s medium (DMEM; Trace Biosciences, Melbourne, Australia) supplemented with 10% foetal bovine serum, sodium bicarbonate (10 mM), penicillin (100 IU mL^−1), streptomycin (100 μg mL^−1), and L-glutamine (4 mM). The non-cancer MCF10A cell line was cultured in DMEM.F12 (1:1) cell culture media (Composition in SI). Cytotoxicity was determined by plating cells in duplicate in 100 μL medium at a density of 2500–4000 cells per well in 96-well plates. After 24 h, when cells were in logarithmic growth, media (100 μL) with or without the test agent were added to each well (day 0). After 72 h of exposure, growth inhibitory effects were evaluated by MTT (3-[4,5-dimethylthiazol-2-yl]-2,5-diphenyltetrazolium bromide) assay, and absorbance was read at 540 nm. […] These calculations were based on the difference between the optical density values on day 0 and those at the end of drug exposure.

Data set [1] can be described thus: Lipophilicity by RP-HPLC (log Kw). Type of data set: physicochemical. The settings on record: isocratic 70 to 90% solvent B. The method, then: Lipophilicity was calculated using a RP-HPLC method to determine log Kw, whereby a stock solution was injected at different isocratic ratios ranging from 70 to 90% solvent B (organic) at a flow rate of 1 mL min^−1. These experiments were undertaken on an Agilent Technologies 1260 Infinity machine equipped with a Phenomenex Onyx™ Monolithic C18 reverse phase column (100 × 4.6 mm, 130 Å). The mobile phase comprised 0.06% TFA in water (solvent A) and 0.06% TFA in ACN:H2O (90:10, solvent B). The dead zero volume time was determined using potassium iodide as an external dead volume marker, further details are provided in the Supplementary Materials.

Another data set deals with HT29 Colon. As to the kind of experiment: MTT cytotoxicity HT29. Type of data set: cell-based. The settings on record: read-out: GI50 Concentration That Inhibits Cell Growth by 50%, 72 h. The method, then:
as §1

For another data set, the system named is A431 Skin. As to the kind of experiment: MTT cytotoxicity A431. The class given is cell-based. The settings on record: read-out: GI50 Concentration That Inhibits Cell Growth by 50%, 72 h. The method, then: as §1
In another data set the test system is MCF-7 Breast. Nature of the data set: MTT cytotoxicity MCF-7. Type of data set: cell-based. The following applies: for GI50: read-out: GI50 Concentration That Inhibits Cell Growth by 50%, MCF-7 Breast, 72 h, MTT. The method, then:
as §1

Data set [2] has as its system calf thymus DNA (ctDNA). Nature of the data set: Direct ctDNA binding by inherent fluorescence (Benesi–Hildebrand). The following applies: inherent fluorescence method, 10 µM CMC, buffer pH 7.0. The method, then: ctDNA experiments utilising the inherent fluorescence of the complexes were completed in addition to the FID experiments. […] The values of Ka and n for the compounds are listed in Table 4, where R^2 is the linear correlation coefficient for Ka.
The direct fluorescent measurements of DNA binding constants were also obtained with the same fluorimeter using 10 mm path length quartz cells. A 0.065 M stock solution of ctDNA was titrated into a 10 µM solution of CMCs 1–3 in a 40 mM K2HPO4/KH2PO, 10 mM KCl buffer at pH 7.0. The fluorescence was measured from 550 to 750 nm excited at 320 nm inverting 4 times and waiting 3 min between the addition of ctDNA and scan time to allow adequate time for the CMCs to interact with the DNA.

The test system of the next data set is MCF10A Breast (normal). Nature of the data set: MTT cytotoxicity MCF10A (non-cancer). Type of data set: cell-based. The settings on record: read-out: GI50 Concentration That Inhibits Cell Growth by 50%, 72 h. The method, then:
as §1

The test system of another data set is U87 Glioblastoma. Nature of the data set: MTT cytotoxicity U87. The class given is cell-based. The following applies: read-out: GI50 Concentration That Inhibits Cell Growth by 50%, 72 h. The method, then: as §1
In a further data set the test system is SJ-G2 Glioblastoma. As to the kind of experiment: MTT cytotoxicity SJ-G2. Type of data set: cell-based. The settings on record: read-out: GI50 Concentration That Inhibits Cell Growth by 50%, 72 h. The method, then:
as §1

The next data set concerns BE2-C Neuroblastoma. Nature of the data set: MTT cytotoxicity BE2-C. Type of data set: cell-based. The settings on record: read-out: GI50 Concentration That Inhibits Cell Growth by 50%, 72 h. The method, then: as §1
Another data set deals with MIA Pancreas. Nature of the data set: MTT cytotoxicity MIA. The class given is cell-based. The settings on record: read-out: GI50 Concentration That Inhibits Cell Growth by 50%, 72 h. The method, then: as §1
Data set [3] concerns calf thymus DNA (ctDNA). Nature of the data set: Fluorescent intercalator displacement (FID) assay, EtBr-saturated ctDNA. The class given is binding. Also on record: Kq (bimolecular quenching constant) / KSV (Stern–Volmer quenching constant): unit not given here. The settings on record: buffer pH 7.0. The method, then:
To investigate the potential mechanisms of action of complexes 1–3, fluorescent intercalator displacement (FID) experiments and DNA binding experiments utilizing the innate fluorescence were undertaken. For FID experiments, the concentration of a fluorescent intercalator, in this case ethidium bromide (EtBr), that is displaced by the complex under investigation is determined. In a solution of calf-thymus DNA (ctDNA) where is saturated with EtBr, the change in fluorescence is monitored as the complex is titrated into this solution. Once the decrease in fluorescence has stopped, the concentration of the complex allows us to calculate the stoichiometric point of binding, the change in fluorescence at the point of binding (ΔFsat), the binding coefficient (Ka), bimolecular quenching constant (Kq), Stern–Volmer quenching constant (Ksv), the binding constant for fluorescence (KF), and the molar equivalents of CMC (n) at the point of intersection is the experimental stoichiometry of binding. (1) [ctDNA]Tn−∆Fx/∆Fsat=[CMC] (2) ∆Fx/∆Fsat1/n=fraction of ctDNA−CMC complex (3) 1−∆Fx/∆Fsat1/n=fraction free CMC
The fluorescence at 601 nm for each titration was plotted, and the KF and n could be calculated from the intercept and slope, respectively. (4) F0/F=1+Kqτ0CMC=1+KSV[CMC] where F0 is the fluorescence of the binding site in the absence of quencher (CMC), F is the fluorescence of the site containing the CMC, and t0 is the lifetime of the chromophore in the absence of the quencher (Ɛ476 = 5680 for ethidium-bound DNA).
A plot of F0/F against [CMC] using experimental values allows for the determination of Kq and KSV from the slope. (5) log10F0−F/F=nlog10CMC+log10KF where n is the number of ethidium ligands that are displaced per CMC. […] A plot of log10[(F0 − F)/F)] against log10[CMC] is used to determine KF and n from the intercept and slope, respectively. Experiments were performed in triplicate for each CMC.
Fluorescent intercalator displacement (FID) assays were obtained using the same instrument and by using 10 mm quartz cells. Stock solutions CMCs 1–3 (30 µM) were titrated into a solution of […] ethidium bromide, 150 µM ctDNA in a 40 mM K2HPO4/KH2PO, and 10 mM KCl buffer at pH 7.0. The fluorescence was measured from 550 to 750 nm excited at 480 nm and inverting 4 times and waiting 3 min between the addition of ctDNA and scan time to allow adequate time for the CMCs to interact with the DNA.

For the next data set, the system named is A2780 Ovarian. Nature of the data set: MTT cytotoxicity A2780. The following applies: read-out: GI50 Concentration That Inhibits Cell Growth by 50%, 72 h. The class given is cell-based. The method, then: as §1
The next data set has as its system ADDP Cis Res Ovarian. As to the kind of experiment: MTT cytotoxicity ADDP. The class given is cell-based. The settings on record: read-out: GI50 Concentration That Inhibits Cell Growth by 50%, 72 h. The method, then:
as §1

A further data set concerns H460 Lung. Nature of the data set: MTT cytotoxicity H460. The class given is cell-based. The following applies: read-out: GI50 Concentration That Inhibits Cell Growth by 50%, 72 h. The method, then:
as §1

In the case of [Pt(DiBequ)(SSDACH)]+ [Complex 3a], the GI50 was found to be 23 ± 2.1 µM in the data set with Du145 Prostate; 16 µM with HT29 Colon; 14 ± 0.6 µM with A431 Skin; 15 ± 0.5 µM in the data set on MCF-7 Breast; 16 ± 0.6 µM in the data set on MCF10A Breast (normal); 16 ± 0.6 µM in the data set on U87 Glioblastoma. Further, the GI50 stood at 17 ± 0.6 µM in the data set with SJ-G2 Glioblastoma; 9 ± 1.3 µM in the data set with BE2-C Neuroblastoma; 15 ± 0.7 µM with MIA Pancreas; 12 ± 0.9 µM in the data set on A2780 Ovarian; 15 µM in the data set with ADDP Cis Res Ovarian; 16 ± 0.9 µM with H460 Lung. The “Lipophilicity × 10^−2 (log Kw)” value in data set [1] is 0.77 ± 0.032 × 10^−2. Besides, the “SI = GI50 for normal cells/GI50 for cancer cells (MCF10A/MCF-7)” value in the data set on MCF-7 Breast (MCF10A/MCF-7) turned out to be 1.07. Moreover, the “Ka (binding constant)” value in the data set with calf thymus DNA (ctDNA) [2] is recorded as 1.11 × 10^4. Further, the “KSV (Stern–Volmer quenching constant)” value in the data set on calf thymus DNA (ctDNA) [3] came to 1.342. The “Ka (binding coefficient)” value with calf thymus DNA (ctDNA) [3] is on record as 1.07 × 10^4. In the data set with calf thymus DNA (ctDNA) [3], the “Kf (binding constant for fluorescence)” value is on record as 3.18. The “Kq (bimolecular quenching constant)” value in the data set on calf thymus DNA (ctDNA) [3] was determined as 0.237. Further, in the data set with calf thymus DNA (ctDNA) [3], the “Point of Experimental Stoichiometry of Binding” value is recorded as 2.38. Further, in the data set with calf thymus DNA (ctDNA) [3], the “n (number of ethidium ligands displaced per CMC)” value is reported as 0.579. Besides, the “ΔFsat (change in fluorescence at the point of binding)” value with calf thymus DNA (ctDNA) [3] was determined as 91.83.

On to [Pt(Bequ)( SSDACH)]+ [Complex 2a], for which the GI50 was 26 ± 2 µM with Du145 Prostate; 16 ± 1.3 µM with HT29 Colon; 12 ± 2.4 µM with A431 Skin; 5.4 ± 1 µM with MCF-7 Breast; 20 ± 1 µM in the data set with MCF10A Breast (normal); 8.6 ± 1.1 µM in the data set with U87 Glioblastoma. Also, the GI50 is 13 ± 2.2 µM in the data set on SJ-G2 Glioblastoma; 23 ± 3.5 µM in the data set with BE2-C Neuroblastoma; 20 ± 3 µM in the data set with MIA Pancreas; 18 ± 2.3 µM with A2780 Ovarian; 14 ± 0.3 µM in the data set with ADDP Cis Res Ovarian; 11 ± 1.5 µM with H460 Lung. In addition, the “Lipophilicity × 10^−2 (log Kw)” value in data set [1] is reported as 2.06 ± 0.097 × 10^−2. Also, in the data set with calf thymus DNA (ctDNA) [2], the “Ka (binding constant)” value was 1.11 × 10^4. Further, the “KSV (Stern–Volmer quenching constant)” value with calf thymus DNA (ctDNA) [3] came to 1.339. In addition, the “Ka (binding coefficient)” value in the data set with calf thymus DNA (ctDNA) [3] was 1.58 × 10^4. The “Kf (binding constant for fluorescence)” value in the data set with calf thymus DNA (ctDNA) [3] was determined as 3.25. In the data set with calf thymus DNA (ctDNA) [3], the “Kq (bimolecular quenching constant)” value is recorded as 0.241. Besides, in the data set on calf thymus DNA (ctDNA) [3], the “Point of Experimental Stoichiometry of Binding” value worked out at 2.52. For the same substance, in the data set with calf thymus DNA (ctDNA) [3], the “n (number of ethidium ligands displaced per CMC)” value is 0.592. Also, in the data set on calf thymus DNA (ctDNA) [3], the “ΔFsat (change in fluorescence at the point of binding)” value turned out to be 89.29.

The record behind these values is article PMC10178562, “Synthesis and Characterisation of Fluorescent Novel Pt(II) Cyclometallated Complexes with Anticancer Activity” (International Journal of Molecular Sciences, 2023).
